{
  "source": "patent US11643428B2",
  "about": "“Therapeutic drug for neurodegenerative disease and application thereof” (SHANGHAI PHARMACEUTICALS HOLDING CO., LTD., priority 2018, dated 2023)",
  "tested_on": "AD mice",
  "test": "Neurogenesis in vivo, BrdU/NeuN staining of hippocampus",
  "set-up": "species or system mouse",
  "details": "10 mg/kg intragastrically once daily, 90 days, vs control group",
  "protocol": "The inventors conducted PL201 administration experiments on AD mice (5-6 months aged AD mice were selected). Each mouse was intragastrically administrated 100 μl PL201, and the dosage was 10 mg/kg mouse body weight. Moreover, mice in the control group were administrated 100 μl water once daily for 90 days, and from Day 60 were intraperitoneally injected with 5-bromo-2′-deoxyuridine (BrdU) of 50 mg/kg mouse body weight once daily for 7 days. After 90 days of administration, the mice were perfused with PFA after anesthesia, and the whole brain was taken for further experiments.\nFor the obtained whole brain, a mature neuron marker NeuN in the hippocampus of mice was detected: The brain of mouse which had been perfused with PFA was then fixed in 4% PFA for 24 hours, and then kept for 72 hours in 30% sucrose for cryoprotection. After the treatment was completed, the region of cerebellum was removed, and the olfactory bulb was placed upright on the filter paper and frozen at −80° C. for at least 24 hours. The frozen sectioning was performed vertically and longitudinally with a thickness of 30 μm. A total of 8×9×=72 slices (2.16 mm) including DG portion were cut and arranged in slicing order. One slice was taken from every 8 slices and combined into a group of brain slices for staining. […] The number of single or double positive cells was analyzed by Image Pro Plus software. […]",
  "data": [
    {"smiles": "COc1cc(/C=C/C(=O)OC2OC(C)C(O)C(O)C2O)ccc1O", "note": "[PL201, (α-L-rhamnopyranosyl) ferulic acid ester]", "values": [
      {"measurement": "BrdU/NeuN double-positive newborn neurons in hippocampus", "value": "more BrdU/NeuN double-positive newborn neurons"}
    ]}
  ]
}
